The supplement of paper PMC7017272
± gives the standard deviation of the averaged measurements.

How the values were obtained:
UT-SCC-24A = experiment: maximal % inhibition of viability relative to DMSO; higher = stronger effect; details: treatment time: 3 days
Description: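 HNSCC cell lines (500 cells/well, 384-well) were cultured on plastic, on top of (2D) or embedded (3D) in Matrigel or human leiomyoma matrix Myogel (500 ug/mL; Myogel 3D mixed with rat collagen I). Cells were treated for 3 days with 5 ten-fold concentrations of each drug, and viability was read by CellTiter-Glo. Viability was normalised to DMSO (0% inhibition) and 100 uM benzethonium chloride (100% inhibition) controls and fitted with the FIMM DSRT pipeline to give IC50 (nM), maximal % inhibition and the drug sensitivity score (DSS). Suffixes _1/_2/_3 on drug names are replicates.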

UT-SCC-24B [1] = experiment: drug sensitivity score (DSS); higher = more sensitive; extreme values may be limits of the assay; details: treatment time: 3 days
Summary of the method: (§1)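 Using 384-well plates, 500 cells/well of HPV-negative HNSCC cell lines were grown on plastic, on 500 µg/mL Matrigel or Myogel coatings, or embedded in Matrigel or Myogel with rat collagen I. They were treated with compounds at five 10-fold concentrations for 3 days, and luminescence from CellTiter-Glo 2.0 was normalised to vehicle (0.1% DMSO) and cell-killing control wells. IC50, maximal inhibition and drug sensitivity score were derived from percent-inhibition dose–response curves in the FIMM pipeline.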

UT-SCC-28 [2] = experiment: as above; details: treatment time: 3 days
Summary of the method: as §1

UT-SCC-40 [3] = experiment: as above; details: treatment time: 3 days
Summary of the method: as §1

UT-SCC-44 [4] = experiment: as above; details: treatment time: 3 days
Summary of the method: as §1

UT-SCC-73 [5] = experiment: as above; details: treatment time: 3 days
Summary of the method: as §1

UT-SCC-81 [6] = experiment: as above; details: treatment time: 3 days
Summary of the method: as §1

UT-SCC-8 = experiment: as above; details: treatment time: 3 days
Summary of the method: as §1

UT-SCC-14 = experiment: relative IC50 (midpoint of the fitted curve; maximal inhibition may be below 50%); higher = less potent; details: treatment time: 3 days
Summary of the method: as §1

UT-SCC-24B [7] = experiment: as above; details: treatment time: 3 days
Summary of the method: as §1

UT-SCC-28 [8] = experiment: as above; details: treatment time: 3 days
Summary of the method: as §1

UT-SCC-40 [9] = experiment: as above; details: culture condition: plastic 2D (no matrix); treatment time: 3 days
Summary of the method: as §1

UT-SCC-42A = experiment: as above; details: treatment time: 3 days
Summary of the method: as §1

UT-SCC-42B = experiment: as above; details: culture condition: on top of Myogel; treatment time: 3 days
Summary of the method: as §1

UT-SCC-44 [10] = experiment: as above; details: treatment time: 3 days
Summary of the method: as §1

UT-SCC-73 [11] = experiment: as above; details: treatment time: 3 days
Summary of the method: as §1

UT-SCC-81 [12] = experiment: as above; details: treatment time: 3 days
Summary of the method: as §1

[13] = culture condition: embedded in Matrigel
[14] = culture condition: embedded in Myogel + collagen I
[15] = culture condition: on top of Matrigel
[16] = culture condition: on top of Myogel
[17] = culture condition: plastic 2D (no matrix)

relative IC50 (UT-SCC-14; [13]): 0.687 nM
relative IC50 (UT-SCC-14; [14]): 0.9 nM
relative IC50 (UT-SCC-14; [15]): 1.24 nM
relative IC50 (UT-SCC-14; [16]): 1.06 nM
relative IC50 (UT-SCC-24B [7]; [13]): 0.965 nM
relative IC50 (UT-SCC-24B [7]; [16]): 2.6 nM
relative IC50 (UT-SCC-24B [7]; [17]): 2.95 nM
relative IC50 (UT-SCC-28 [8]; [13]): 2.04 nM
relative IC50 (UT-SCC-28 [8]; [15]): 1.16 nM
relative IC50 (UT-SCC-28 [8]; [17]): 1.2 nM
relative IC50 (UT-SCC-40 [9]): > 98.9 nM
relative IC50 (UT-SCC-42A; [14]): 3.22 nM
relative IC50 (UT-SCC-42A; [15]): 2.37 nM
relative IC50 (UT-SCC-42A; [16]): 2.33 nM
relative IC50 (UT-SCC-42A; [17]): 2.24 nM
relative IC50 (UT-SCC-42B): > 98.9 nM
relative IC50 (UT-SCC-44 [10]; [14]): 2.41 nM
relative IC50 (UT-SCC-44 [10]; [15]): 1.79 nM
relative IC50 (UT-SCC-44 [10]; [17]): 1.88 nM
relative IC50 (UT-SCC-73 [11]; [14]): 26.3 nM
relative IC50 (UT-SCC-73 [11]; [16]): 12 nM
relative IC50 (UT-SCC-73 [11]; [17]): 31.8 nM
relative IC50 (UT-SCC-81 [12]; [14]): 2.71 nM
relative IC50 (UT-SCC-81 [12]; [15]): 1.95 nM
relative IC50 (UT-SCC-81 [12]; [16]): 1.55 nM
relative IC50 (UT-SCC-81 [12]; [17]): 1.4 nM
SMILES: CO[C@H]1C[C@@H]2CC[C@@H](C)[C@@](O)(O2)C(=O)C(=O)N2CCCC[C@H]2C(=O)O[C@H]([C@H](C)C[C@@H]2CC[C@@H](O)[C@H](OC)C2)CC(=O)[C@H](C)/C=C(\C)[C@@H](O)[C@@H](OC)C(=O)[C@H](C)C[C@H](C)/C=C/C=C/C=C/1C [Sirolimus]
maximal % inhibition of viability (UT-SCC-24A; [13]): 69 ± 4.9%
maximal % inhibition of viability (UT-SCC-24A; [14]): 77.4 ± 8.1%
maximal % inhibition of viability (UT-SCC-24A; [15]): 71.57 ± 0.55%
maximal % inhibition of viability (UT-SCC-24A; [16]): 65.5 ± 2.4%
maximal % inhibition of viability (UT-SCC-24A; [17]): 67.9 ± 2.4%
drug sensitivity score (UT-SCC-24B [1]; [13]): 22.9 ± 0.36 DSS
drug sensitivity score (UT-SCC-24B [1]; [14]): 19.5 ± 4 DSS
drug sensitivity score (UT-SCC-24B [1]; [15]): 18.9 ± 4.8 DSS
drug sensitivity score (UT-SCC-24B [1]; [16]): 17.2 ± 3.4 DSS
drug sensitivity score (UT-SCC-24B [1]; [17]): 16.8 ± 4.1 DSS
drug sensitivity score (UT-SCC-28 [2]; [13]): 7.27 ± 5.1 DSS
drug sensitivity score (UT-SCC-28 [2]; [14]): 7.53 ± 7 DSS
drug sensitivity score (UT-SCC-28 [2]; [15]): 9.87 ± 0.93 DSS
drug sensitivity score (UT-SCC-28 [2]; [17]): 6.97 ± 1.6 DSS
drug sensitivity score (UT-SCC-40 [3]; [13]): 5.4 ± 4.9 DSS
drug sensitivity score (UT-SCC-40 [3]; [14]): 4.83 ± 4.2 DSS
drug sensitivity score (UT-SCC-40 [3]; [15]): 3.2 ± 5.5 DSS
drug sensitivity score (UT-SCC-40 [3]; [16]): 4.67 ± 4.1 DSS
drug sensitivity score (UT-SCC-40 [3]; [17]): 0 DSS
drug sensitivity score (UT-SCC-44 [4]; [13]): 6.6 ± 5.8 DSS
drug sensitivity score (UT-SCC-44 [4]; [14]): 13.9 ± 2.7 DSS
drug sensitivity score (UT-SCC-44 [4]; [15]): 13.1 ± 0.99 DSS
drug sensitivity score (UT-SCC-44 [4]; [16]): 14.2 ± 3.2 DSS
drug sensitivity score (UT-SCC-44 [4]; [17]): 15 ± 1.4 DSS
drug sensitivity score (UT-SCC-73 [5]; [13]): 12.4 ± 4.3 DSS
drug sensitivity score (UT-SCC-73 [5]; [14]): 8.07 ± 1.6 DSS
drug sensitivity score (UT-SCC-73 [5]; [15]): 11.9 ± 5.2 DSS
drug sensitivity score (UT-SCC-73 [5]; [16]): 10.1 ± 0.81 DSS
drug sensitivity score (UT-SCC-73 [5]; [17]): 7.43 ± 0.31 DSS
drug sensitivity score (UT-SCC-81 [6]; [13]): 14.2 ± 4.6 DSS
drug sensitivity score (UT-SCC-81 [6]; [14]): 14.9 ± 2.7 DSS
drug sensitivity score (UT-SCC-81 [6]; [15]): 17.1 ± 1.8 DSS
drug sensitivity score (UT-SCC-81 [6]; [16]): 16.6 ± 2.1 DSS
drug sensitivity score (UT-SCC-81 [6]; [17]): 17.8 ± 1.2 DSS
drug sensitivity score (UT-SCC-8; [13]): 12.2 ± 11 DSS
drug sensitivity score (UT-SCC-8; [14]): 3.87 ± 6.7 DSS
drug sensitivity score (UT-SCC-8; [15]): 11.5 ± 10 DSS
drug sensitivity score (UT-SCC-8; [16]): 11.3 ± 9.8 DSS
drug sensitivity score (UT-SCC-8; [17]): 12.4 ± 11 DSS
